The text below walks through data of patent US9279107B2, “Simplified basic media for human pluripotent cell culture” (WISCONSIN ALUMNI RESEARCH FOUNDATION, priority 2010, dated 2016).

Assay [1] relates to foreskin cells. Put plainly: Reprogramming of foreskin fibroblasts to iPS cells. It counts as cell-based, human. The method, then:
Available reprogramming protocols include incubation of the cells in FBS in the first several days after viral transduction or electroporation, prior to switching the cells to UM100 (U.S. Pat. No. 7,439,064, incorporated herein as if set forth in its entirety) or CM. The simplified media described in previous Examples were tested for their ability to support reprogramming.
To determine if DF5S-based media can be used for viral-free iPS cell derivation, foreskin cells were reprogrammed using a viral-free episomal vector, as described in Yu et al., Science 324:797 (2009), incorporated herein by reference as if set forth in its entirety, at hypoxic conditions (O5C10).
Plasmid combinations #6 and #19 were used for the reprogramming. In order to enhance the plasmid entry into the nucleus, ENBA mRNA was electroporated along with plasmid DNA. Around one million cells were transferred onto two 6-well plates in DF5SFeC for 5 days. Medium was then switched to DF5SFe for another 18-25 days. Cells of some of the wells were passaged for a second time using a 1:6 ratio at different time points.

Assay [2] concerns human fibroblasts. Put plainly: Reprogramming efficiency of human fibroblasts in E8-based medium. The following applies: E8 versus MEF feeder cells or TeSR; butyrate 100 μM with or without TGF-β. It counts as cell-based.
Assay [3] deals with H1 cells. Nature of the assay: Cloning efficiency of H1 cells. Format: cell-based, human. The method, then: FIG. 2 A-F illustrate optimization of human ES cell and iPS cell culture conditions with DF5S. […] Cell survival was examined at 24 hours and 124 hours. […] DF5S trFe indicates DF5S media to which holotransferrin was added. FIG. 2E illustrates the cloning efficiency of H1 cells cultured in various media in the presence of HA100 (10 μM, 24 hours), blebbistatin (10 μM, 4 hours), or Y27632 (10 μM, 24 hours), compared to cloning efficiency in the absence of these factors (control). Asterisks indicate p<0.05. FIG. 2F illustrates cloning efficiency of H1 cells in conditioned medium (CM), CM with ROCK inhibitor (HA100), TeSR with ROCK inhibitor, and E8 with ROCK inhibitor in normoxic (dark gray bars) or hypoxic (light gray bars) conditions. Error bars indicate the standard error of the mean; asterisks indicate p<0.05.
To determine cloning efficiency at various oxygen and CO2 concentrations, 500 cells were seeded into each well. Even at low oxygen, cloning efficiency was too low (<2%) to determine effects of various conditions on cloning. HA100, a ROCK inhibitor known to increase cloning efficiency, was used to increase cloning efficiency for testing oxygen and CO2 concentrations. Conditioned medium (CM), known to be the best medium for cloning, was used as control.
The cells maintained a normal karyotype after more than 25 passages.

Assay [4] concerns iPS cells. Put plainly: Cloning efficiency of iPS cells. It counts as cell-based, human. The note with it: about 500 cells per well, in the presence of HA100, DF5S-based media versus TeSR or CM. The protocol:
To determine how DF5S affects cloning efficiency, two iPS cell lines were grown in DF5S and plated at cloning density (approximately 500 cells per 12-well plate well) in the presence of HA100. […] To identify such factor, individual TeSR™ components were added individually to DF5S and tested for effect on cloning efficiency.

Assay [5] has as its system foreskin cells. Nature of the assay: Foreskin cell growth in DF5SFe-based media. Details: species or system human. The protocol: To determine growth factors that can help primary foreskin cell growth, individual growth factors contained in FBS were tested. The FGF family of growth factors has several members, one or more of which is commonly used for fibroblast culture. DF5SFe contains 100 ng/ml zebrafish recombinant FGF2. Each FGF family member was tested for its ability to support foreskin cell growth. Foreskin cells were aliquoted into the well of culture plates and incubated for 24 hours in DF5SFe minus FGF. Individual FGF types were added at 100 ng/ml for 96 h.

The subject of assay [6] is H1 ES cells. Put plainly: Short term growth / proliferation after passaging. Format: cell-based, human. The following applies: for cell proliferation after passaging: factor added to DMEM/F12, NaHCO3, insulin and FGF, L-ascorbic acid 64 mg/L. The protocol:
(§1) Five-hundred micro liter of various test media was loaded into each well of 12-well plates prior to the addition of cells. Adherent pluripotent cells were dissociated with TrypLE (Invitrogen) for 5 minutes or until fully detached from the culture plates. TrypLE was neutralized by adding an equal volume of media to the culture. The cells were counted, washed, and resuspended in fresh media at a concentration of 300,000 to 1,000,000 cells/ml. Approximately 100 μl of this cell solution was added into each well of the 12-well plates and the cells were incubated at 37° C. with 5% O2 and 10% CO2. Cells were again dissociated at various time points using 0.4 ml TrypLE, which was subsequently neutralized with equal volumes of 10% FBS in DMEM. The cells were counted by flow cytometry. 5000 count bright beads were added to each sample as internal control (approximately 200 beads were counted for each sample). All experiments were performed in triplicates.
TeSR medium contains six growth factors, in addition to those present in the basal medium, fibroblast growth factor (FGF), transforming growth factor beta (TGF-β), γ-aminobutyric acid (GABA), pipecolic acid, lithium chloride (LiCl), and insulin (Table 1). A basic nutrient medium (NM) was created containing all TeSR™ components with the exception of these six growth factors. About 2×10^5 H1 ES cells were dissociated and plated on Matrigel. The survival index was determined after 24 h. […] Thus, NM supplemented with FGF and Insulin supports human ES cell culture. Twelve different basal nutrient media supplemented as described above were able to support cell survival and growth (FIG. 1E).
NM contains 11 nutritional components, i.e., DMEM/F12, trace elements B, trace elements C, L-ascorbic acid, thiamine, selenium, L-glutamine, BSA, BME, sodium bicarbonate (NaHCO3), and transferrin (Table 1). […]
H1 cells grew faster in the DF5S medium compared to cells grown in TeSR™ (FIGS. 1C and 2A). […] To increase assay sensitivity only 5,000 cells were seeded in each well and analyzed for survival (24 h) and proliferation (124 h). […]

In assay [7] the test system is H1 ES cells. Nature of the assay: ES cell survival in mTeSR without insulin. It counts as cell-based, human. The note with it: for cell survival: 30 ng/ml added at 0 hour; for cell survival, dosage response: low concentration (e.g., 3 ng/ml), 24 hours. The method, then: Pluripotent cell survival assays were carried out as described in Example 1. Media tested included mTeSR and mTeSR […]. IGF1R is known to be activated by insulin, IGF1 and IGF2 (Nguyen et al., Reproduction 134:41-49 (2007)). Accordingly, the inventors designed and carried out experiments to test how IGF1 or IGF2 could affect ES cell survival. Individualized H1 ES cells were plated in mTeSR™ with or without insulin (Sigma). IGF1 (30 ng/ml) and IGF2 (30 ng/ml) were added to media at 0 hour. […] Dosage response assays were conducted to determine useful concentrations of IGF1, IGF2, and Long-IGF-1 (Sigma) in pluripotent cell maintenance medium. Individualized H1 ES cells were plated in mTeSR without insulin, IGF1, IGF2 and Long-IGF1 were added at 0 hour, and cell survival was measured after 24 hours.

Assay [8] relates to H1 ES cells. Nature of the assay: ES cell proliferation after insulin replacement. The following applies: insulin replaced after 24 hours with 30 ng/ml; feeder-free culture. Format: cell-based, human. The method, then:
To determine whether IGF1 and IGF2 are sufficient to support ES cell proliferation in the absence of insulin, individualized H1 ES cells were plated onto Matrigel plates in TeSR (with insulin) for the first 24 hours. Then insulin was either removed or replaced with IGF1 (30 ng/ml) and IGF2 (30 ng/ml). Cell numbers were measured at specific time points, and the fold change in cell numbers was normalized to the cell counts at the time when insulin was first replaced.

The subject of assay [9] is H1 ES cells. Put plainly: Pluripotent cell survival assay (24 h survival index after dissociation). The note with it: basic nutrient medium NM with or without additions, H1 ES cells on Matrigel. It counts as cell-based, human. The protocol:
as §1, with “triplicates. TeSR medium contains six growth factors, in addition to those present in the basal medium, fibroblast growth factor (FGF), transforming growth factor beta (TGF-β), γ-aminobutyric acid (GABA), pipecolic acid, lithium chloride (LiCl), and insulin (Table 1). A basic nutrient medium (NM) was created containing all TeSR™ components with the exception of these six growth factors. […] The survival index was determined after 24 h. […]” for “triplicates.”

Setting [10] is: in E8, HA100 10 μM 24 h, blebbistatin 10 μM 4 h, Y27632 10 μM 24 h, versus control.

On to `CCCC(=O)[O-].[Na+]` [Butyrate, sodium butyrate], for which, in assay [1] (foreskin fibroblasts), the “number of colonies during reprogramming” value is “did not increase the number of colonies”. In addition, in [1] (foreskin fibroblasts), the “ratio of true iPS cell to non-iPS cell colonies” value is “improved the ratio of true iPS cell to non-iPS cell colonies significantly”. The reprogramming efficiency result is listed as “improved reprogramming efficiency” in [1] (reagent added to reprogramming media) and “further enhanced reprogramming efficiency” in assay [2].
With `O=S(=O)(c1cccc2cnccc12)N1CCNCC1` [HA100], the cloning efficiency entry is “increased cloning efficiency” in [3] (setting [10]); “significantly improved cloning efficiency” in assay [3] (in conditioned medium (CM), at both O5C10 and O15C5, 500 cells per well).
`C[C@]12CCC(=O)C=C1CC[C@@H]1[C@@H]2[C@@H](O)C[C@@]2(C)[C@H]1CC[C@]2(O)C(=O)CO` [Hydrocortisone, reference compound]: the cloning efficiency result in [4] is listed as “improved iPS cell cloning efficiency”. The foreskin cell growth result in assay [5] (added to DF5SFe to replace FBS) is listed as “improved cell growth significantly”.
Turning to `O=C(O)[C@@H]1C[C@@H](O)CN1` [Hydroxyproline], the “cell proliferation after passaging” value in [6] is reported as “could partially substitute for L-ascorbic acid”.
On to `O=C1O[C@H]([C@@H](O)CO)C(O)=C1O` [L-ascorbic acid], for which, in [6], the “cell proliferation after passaging” value is recorded as “necessary for cell proliferation after passaging”.
Regarding `C[C@@H](N)[C@H]1CC[C@H](C(=O)Nc2ccncc2)CC1` [Y27632], the cloning efficiency result in assay [3] (setting [10]) was “increased cloning efficiency”.
As to `Cc1ccc2c(c1)C(=O)C1(O)CCN(c3ccccc3)C1=N2` (stereo not drawn) [blebbistatin], in assay [3] (setting [10]), the cloning efficiency entry is reported as “increased cloning efficiency”.
In the case of FGF1: FGF family member growth factor, the foreskin cell growth entry in [5] (individual FGF added at 100 ng/ml for 96 h to DF5SFe minus FGF) was “supported foreskin cell growth most effectively”.
IGF1: ligand of the IGF1R receptor: in assay [7], the cell survival entry is “rescued cell survival in the absence of insulin” and the “cell survival, dosage response” value is on record as “can support hES cell survival in the absence of insulin”. In assay [8], the cell proliferation result is “able to support cell proliferation”.
As to IGF2: ligand of the IGF1R receptor, in assay [7], the cell survival result is “rescued cell survival in the absence of insulin” and the “cell survival, dosage response” value is recorded as “can support hES cell survival in the absence of insulin”. In assay [8], the cell proliferation result is given as “able to support cell proliferation”.
As to holo-transferrin, the cloning efficiency result was “noticeable improvement of cloning efficiency” in assay [3] (H1 cells in DF5S medium, transferrin added); “further increased” in [3] (setting [10]); “cloning efficiency comparable to that using TeSR™” in assay [4].
On to insulin, for which the “cell survival after dissociation (survival index)” value in [9] was “cell survival similar to that observed with TeSR™”. Besides, in assay [6] (added to NM, insulin 20 ug/ml, FGF2 100 ng/ml, 96 h, compared with TeSR), the cell growth entry is listed as “did not support cell growth”.
